Measurements published in EP1541138A1, “Novel use of peptide compounds for treating status epilepticus or related conditions” (SCHWARZ PHARMA AG, priority 2003, dated 2005).

Experiments:
[1] = SSSE after brief electrical stimulation of the perforant path (EEG monitoring for 24 hrs); type: in vivo, male Wistar rats; settings: for cumulative seizure duration over the 24h period / time to the last seizure: Experiment 1a: 60 minutes stimulation, i.v. 10 min after end of perforant path stimulation, SPM 927 50 mg/kg, PHT 50 mg/kg, DZP 10 mg/kg, compared to control animals (Fig. 1); for time after injection within which seizures stopped: 50 mg/kg i.v. (fosphenytoin: phenytoin equivalent) 10 min after end of stimulation (Fig. 2A); for Spike frequency (number of spikes/10 min): 50 mg/kg i.v., vs control animals (Fig. 2B)
Description: (§1) Animals: The experiments were performed on male Wistar rats, 280-300g (Simonsen Labs, CA). Animals were kept at a constant room temperature with 12 hours artificial dark-light cycle with free access to standard diet and tap water.
Surgery: Under ketamine (60 mg/kg)/xylazine (15 mg/kg) anesthesia, animals were implanted with a bipolar stimulating electrode into the angular bundle of the perforant path (4.5 mm to left lambda, 1 mm anterior to lambdoid fissure) and a bipolar recording electrode into the granule cell layer of the ipsilateral dentate gyrus (3.5 mm anterior to lambda, 2.2 mm left to saggital fissure). Depth of both electrodes was optimized by monitoring the amplitude and waveform of the population spike evoked from the dentate gyrus by stimuli delivered through the perforant path (single square wave monophasic stimuli, 20 V, 0.1 ms delivered every 10 s).
Induction of self-sustaining status epilepticus (SSSE): Seven days after surgery, animals were connected to a Cardionics 16 channel preamplifier, which was connected to the IBM computer. After 5 minutes of baseline EEG recording, animals were stimulated in the awake state for 60 minutes (Experiment 1 a) or 30 minutes (Experiments 1b and 1 c) with 10 s 20 Hz trains (1 ms square wave, 20 V) delivered every minute, together with 2 Hz continuous stimulation with the same parameters.
EEG monitoring and analysis: EEG from the dentate gyrus was monitored and recorded by means of commercial software (Monitor 8.1 from Stellate Systems). The software was configured for automatic detection and saving of spikes and seizures. Monitoring was performed for 24 hrs. EEG was analyzed off line by means of the same software. Spike distribution was presented as number of spikes per 10 min epoch, and the cumulated duration of seizures for 24 hrs of monitoring were calculated. Statistical analysis was performed by means of T-test. A p value less than 0.05 was considered statistically significant.
Drug administration: SPM 927 (50 mg/kg, 5 animals), phenytoin (PHT) (50 mg/kg), Fosphenytoin (F-PTH Porte-Davis, 50 mg/kg of phenytoin equivalent, 5 animals), diazepam (DZP) (10mg/kg) or vehicle (VEH, 10% DMSO, 6 animals) were given i.v. 10 min after the end of perforant path stimulation in a volume of 1 ml/kg.

[2] = Hippocampal damage following SSSE (count of damaged neurons in brain sections, light microscopy); type: in vivo, male Wistar rats
Description: as §1
Surgery: Under ketamine (60 mg/kg)/xylazine (15 mg/kg) anesthesia, animals were implanted with a bipolar stimulating electrode into the angular bundle of the perforant path (4.5 mm to left lambda, 1 mm anterior to lambdoid fissure) and a bipolar recording electrode into the granule cell layer of the ipsilateral dentate gyrus (3.5 mm anterior to lambda, 2.2 mm left to saggital fissure). […]
Selection of sections for counting: Selection of sections for counting was controlled by the stereotaxic atlas for rats (Paxinos and Watson). The 3 sections selected for quantitation contained dorsal hippocampus and were 1.6 ±0.05mm posterior to bregma.
Location of counting fields ― damage to the pyramidal cell layer was assessed by counting damaged neurons in the subiculum, CA1, CA3, CA3c and the hilus in the dorsal hippocampus. The neurons were assessed individually from the beginning of the subiculum to the end of the CA3c region using an Olympus Provis Ax 70 microscope at a magnification of 40x. […]
Criteria for differentiation of damaged versus non-damaged neurons - neurons were counted only if the majority of the nucleus was present in the section. […]

[3] = Chemically induced SSSE (cobalt/homocysteine model, homocysteine thiolactone injection); type: in vivo, Male Sprague-Dawley rats
Description: Male Sprague-Dawley rats were prepared surgically with cobalt powder on the left frontal cortical surface.
Recording and stimulation protocol: four epidural recording electrodes arranged in a square grid (5mm) over the cobalt lesion. EEG was monitored daily beginning 4-5 days following surgery. Status epilepticus was induced by i.p. injection of 5.5mmol/kg homocysteine thiolactone whenever focal motor behaviour and EEG seizures were observed.
Drug administration: SPM 927 was administered (10-100mg/kg) immediately following the second generalized tonic-clonic seizure (GTCS) occurring after homocysteine thiolactone injection.

[4] = Experiment 1b: 30 minutes stimulation
[5] = SPM 927 10-100mg/kg immediately following the second GTCS, 30 min following treatment

SMILES	cumulative seizure duration over the 24h period [1]	time to the last seizure [1]	efficacy on both parameters (cumulative seizure duration, time to the last seizure) when compared to DZP and PHT ([1]; Experiment 1a, SPM 927 50 mg/kg i.v. vs DZP 10 mg/kg and PHT 50 mg/kg (Fig. 1))	recurrence of seizures over the next 24 hrs ([1]; Experiment 1b: 30 minutes stimulation, 50 mg/kg i.v. (Fig. 2A))	time for which only a few single spikes were recorded ([1]; Experiment 1b: 30 minutes stimulation, 50 mg/kg i.v. (Fig. 2B))	time after injection within which seizures stopped [1, 4] [min]	Spike frequency (number of spikes/10 min) [1, 4]	injured neurons in hippocampal fields ([2]; Experiment 1c: 30 minutes stimulation, SPM 927 50 mg/kg i.v., brains collected 72 hours after SSSE, subiculum, CA1, CA3, CA3c, hilus)	protection against neuronal injury, statistical significance ([2]; Experiment 1c, vs untreated rats, by hippocampal field)	latency to the first GTCS [3, 5]	mean number of GTCS [3, 5]	number of rats experiencing GTCS ([3]; SPM 927 10-100mg/kg immediately following the second GTCS, observed 30 min following treatment)	GTCS at the highest dose ([3]; highest dose of SPM 927 (range 10-100mg/kg), 30 min following treatment)
COC[C@@H](NC(C)=O)C(=O)NCc1ccccc1 [SPM 927, (R)-2-acetamide-N-benzyl-3-methoxypropionamide]	potently and significantly reduced	potently and significantly reduced	somewhat more efficacious	did not recur	about 12 hrs	≤ 15	significantly decreased	only an occasional injured neuron in any hippocampal field	statistically significant in the subiculum, CA1 and CA3	prolonged	potently reduced	reduced in a dose-dependent fashion	completely abolished all GTCS
O=C1NC(=O)C(c2ccccc2)(c2ccccc2)N1 [PHT, phenytoin, reference compound]	potently and significantly reduced	potently and significantly reduced	–	–	–	–	–	–	–	–	–	–	–
O=C1NC(c2ccccc2)(c2ccccc2)C(=O)N1COP(=O)(O)O [Fosphenytoin, reference compound]	–	–	–	–	–	≤ 15	significantly lower than in control animals but significantly higher than in SPM 927 treated rats	–	–	–	–	–	–
CN1C(=O)CN=C(c2ccccc2)c2cc(Cl)ccc21 [DZP, diazepam, reference compound]	potently and significantly reduced	potently and significantly reduced	–	–	–	–	–	–	–	–	–	–	–
